Data as given in US9163012B2, “Carbamate and urea inhibitors of 11β-hydroxysteroid dehydrogenase 1” (Vitae Pharmaceuticals, Inc., priority 2009, dated 2015).
Where two headings read alike, the source gives them in different places.

Biological target: 11β-HSD1 (Homo sapiens (Human), UniProt P28845)
Test: Biological Test Example 1: inhibition of a microsomal preparation of 11β-HSD1 (SPA)
Format: biochemical
Conditions: for inhibition at 0.1 µM: read-out: Average % inhibition at 100 nM, Biological Test Example 1
Procedure: All reactions were carried out at rt in 96 well clear flexible PET Microbeta plates (PerkinElmer). […] After a 10 minute pre-incubation, 50 μL of enzyme solution containing microsomes isolated from CHO cells overexpressing human 11-HSD1 (10-20 μg/ml of total protein) was added, and the plates were incubated for 90 minutes at rt. The reaction was stopped by adding 50 μl of the SPA beads suspension containing 10 μM […], 5 mg/ml protein A coated YSi SPA beads (GE Healthcare) and 3.3 μg/ml of anti-cortisol antibody (East Coast Biologics) in Superblock buffer (Bio-Rad). The plates were shaken for 120 minutes at rt, and the SPA signal corresponding to [^3H]cortisol was measured on a Microbeta plate reader.

[1] = Biological Test Example 1, microsomes from CHO cells overexpressing human 11β-HSD1, read-out: IC50 Range
[2] = Biological Test Example 1, read-out: IC50
[3] = Biological Test Example 1, 100 nM compound

Chain of 11β-HSD1 (P28845 whole entry): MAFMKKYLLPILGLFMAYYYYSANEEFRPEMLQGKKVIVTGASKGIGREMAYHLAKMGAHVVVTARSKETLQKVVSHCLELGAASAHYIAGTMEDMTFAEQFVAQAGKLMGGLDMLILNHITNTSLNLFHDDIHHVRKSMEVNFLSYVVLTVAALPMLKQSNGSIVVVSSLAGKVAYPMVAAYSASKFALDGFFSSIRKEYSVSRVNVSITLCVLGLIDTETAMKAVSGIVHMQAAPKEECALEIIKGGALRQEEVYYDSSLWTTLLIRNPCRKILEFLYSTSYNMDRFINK

SMILES | IC50 [1] [nM] | IC50 [2] [nM] | inhibition at 0.1 µM (100 nM compound) [%] | Average % inhibition at 100 nM [3] [%] | Average % inhibition at 100 nM [%] | IC50 (read-out: IC50) [nM] | IC50 (read-out: IC50 Range) [nM]
Cn1ccc(-c2csc([C@H]3CCCN3C(=O)OC3C4CC5CC(C4)CC3C5)n2)cc1=O (stereo partly drawn) [EXAMPLE 53, (R)-2-adamantyl 2-(4-(1-methyl-2-oxo-1,2-dihydropyridin-4-yl)thiazol-2-yl)pyrrolidine-1-carboxylate] | < 100 | 0.47 | 95.8 | – | – | – | –
Cc1nc2cccc(Cl)c2n1[C@@H]1CCN(C(=O)OC2C3CC4CC2CC(C(N)=O)(C4)C3)C1 (stereo partly drawn) [EXAMPLE 59, (R)-1-carbamoyl-4-adamantyl 3-(7-chloro-2-methyl-1H-benzo[d]imidazol-1-yl)pyrrolidine-1-carboxylate] | < 100 | 1.92 | 96.7 | – | – | – | –
NC(=O)c1cnc(C2CCN(C(=O)OC3C4CC5CC3CC(C(N)=O)(C5)C4)C2)nc1 (single isomer, unassigned) [EXAMPLE 47 Isomer 2, 1-carbamoyl-4-adamantyl 3-(5-carbamoylpyrimidin-2-yl)pyrrolidine-1-carboxylate] | < 100 | 91.6 | – | 55.6 | – | – | –
NC(=O)[C@]12CC3CC(C1)[C@@H](OC(=O)N1CCC(c4ncc(Cl)cn4)C1)C(C3)C2 (single isomer, unassigned) [EXAMPLE 26 Isomer 1a, (1-carbamoyl-4-adamantyl) 3-(5-chloropyrimidin-2-yl)pyrrolidine-1-carboxylate] | < 100 | 1.15 | – | 102.6 | – | – | –
Cn1c(C2CCCN2C(=O)OC2C3CC4CC2CC(C(N)=O)(C4)C3)nc2ccccc21 (centres unmarked) [EXAMPLE 32, (1-carbamoyl-4-adamantyl) 2-(1-methyl-1H-benzo[d]imidazol-2-yl)pyrrolidine-1-carboxylate] | < 100 | 1.08 | 94.7 | – | – | – | –
O=C(OC1C2CC3CC(C2)CC1C3)N1CCC[C@@H]1c1nc(-c2ccncc2)cs1 (stereo partly drawn) [EXAMPLE 50, (R)-2-adamantyl 2-(4-(pyridin-4-yl)thiazol-2-yl)pyrrolidine-1-carboxylate] | < 100 | 0.91 | 98.2 | – | – | – | –
NC(=O)C12CC3CC(C1)C(OC(=O)N1CCC(c4ncc(F)cn4)C1)C(C3)C2 (single isomer, unassigned) [EXAMPLE 41 Isomer 2, 1-carbamoyl-4-adamantyl 3-(5-fluoropyrimidin-2-yl)pyrrolidine-1-carboxylate] | – | – | – | 69.0 | – | – | –
O=C(OC1C2CC3CC1CC(O)(C3)C2)N1CCC(c2cc[n+]([O-])cc2)C1 (centres unmarked) [EXAMPLE 22, 4-(1-((1-hydroxy-4-adamantyloxy)carbonyl)pyrrolidin-3-yl)pyridine 1-oxide] | > 100 | 100 | 3.7 | – | – | – | –
O=C(OC1C2CC3CC1CC(C(=O)O)(C3)C2)N1CCC(c2ncc(Cl)cn2)C1 (single isomer, unassigned) [EXAMPLE 46 Isomer 2, cis-4-((3-(5-chloropyrimidin-2-yl)pyrrolidine-1-carbonyl)oxy)adamantane-1-carboxylic acid] | > 100 | > 100 | – | 3.8 | – | – | –
Cc1csc(C2CCN(C(=O)OC3C4CC5CC3CC(C(N)=O)(C5)C4)C2)n1 (single isomer, unassigned) [EXAMPLE 42 Isomer 2, cis-1-carbamoyl-4-adamantyl 3-(4-methylthiazol-2-yl)pyrrolidine-1-carboxylate] | – | – | – | 21.8 | – | – | –
Cn1ccc(-c2csc(C3CCN(C(=O)O[C@H]4C5CC6CC4C[C@](C(N)=O)(C6)C5)C3)n2)cc1=O (stereo partly drawn) [EXAMPLE 56, trans-1-carbamoyl-4-adamantyl 3-(4-(1-methyl-2-oxo-1,2-dihydropyridin-4-yl)thiazol-2-yl)pyrrolidine-1-carboxylate] | < 100 | 1.95 | 96.7 | – | – | – | –
Cn1cc(-c2cnc(C3CCN(C(=O)OC4C5CC6CC4CC(C(N)=O)(C6)C5)C3)nc2)ccc1=O (single isomer, unassigned) [EXAMPLE 58 Isomer 1, trans-1-carbamoyl-4-adamantyl 3-(5-(1-methyl-6-oxo-1,6-dihydropyridin-3-yl)pyrimidin-2-yl)pyrrolidine-1-carboxylate] | < 100 | 33.3 | – | 69.4 | – | – | –
Cc1ccc(C2CCN(C(=O)OC3C4CC5CC3CC(C(N)=O)(C5)C4)C2)nn1 (single isomer, unassigned) [EXAMPLE 37 Isomer 1, trans-1-carbamoyl-4-adamantyl 3-(6-methylpyridazin-3-yl)pyrrolidine-1-carboxylate] | – | – | – | 76.6 | – | – | –
NC(=O)[C@]12CC3CC(C1)[C@@H](OC(=O)N1CC[C@H](Oc4ccc(C(F)(F)F)cn4)C1)C(C3)C2 [EXAMPLE 6, (S)-(trans-(1-carbamoyl-4-adamantyl)) 3-(5-(trifluoromethyl)pyridin-2-yloxy)pyrrolidine-1-carboxylate] | < 100 | 0.54 | 96.9 | – | – | – | –
NC(=O)[C@]12CC3CC(C1)[C@@H](OC(=O)N1CCC(c4ncc(Cl)cn4)C1)C(C3)C2 (single isomer, unassigned) [EXAMPLE 26 Isomer 2, cis-(1-carbamoyl-4-adamantyl) 3-(5-chloropyrimidin-2-yl)pyrrolidine-1-carboxylate] | > 100 | > 100 | – | 26.3 | – | – | –
O=C(OC1C2CC3CC1CC(O)(C3)C2)N1CCC(c2ncc(Cl)cn2)C1 (single isomer, unassigned) [EXAMPLE 24 Isomer 2, cis-1-hydroxy-4-adamantyl 3-(5-chloropyrimidin-2-yl)pyrrolidine-1-carboxylate] | – | – | – | 34.7 | – | – | –
NC(=O)[C@]12CC3CC(C1)[C@@H](OC(=O)N1CCC[C@@H]1c1nc(-c4cc[nH]c(=O)c4)cs1)C(C3)C2 [EXAMPLE 54, (R)-trans-1-carbamoyl-4-adamantyl 2-(4-(2-oxo-1,2-dihydropyridin-4-yl)thiazol-2-yl)pyrrolidine-1-carboxylate] | < 100 | 2.67 | 95.4 | – | – | – | –
Cc1cc(C2CCN(C(=O)OC3C4CC5CC3CC(C(N)=O)(C5)C4)C2)nn1C (single isomer, unassigned) [EXAMPLE 40 Isomer 2, 1-carbamoyl-4-adamantyl 3-(1,5-dimethyl-1H-pyrazol-3-yl)pyrrolidine-1-carboxylate] | > 100 | > 100 | – | 5.2 | – | – | –
Cc1ccnc(C2CCN(C(=O)OC3C4CC5CC3CC(C(N)=O)(C5)C4)C2)n1 (single isomer, unassigned) [EXAMPLE 38 Isomer 2, 1-carbamoyl-4-adamantyl 3-(4-methylpyrimidin-2-yl)pyrrolidine-1-carboxylate] | > 100 | > 100 | – | 10.7 | – | – | –
Cc1noc(C2CCN(C(=O)O[C@H]3C4CC5CC3C[C@](C(N)=O)(C5)C4)C2)n1 (stereo partly drawn) [EXAMPLE 23, trans-1-carbamoyl-4-adamantyl 3-(3-methyl-1,2,4-oxadiazol-5-yl)pyrrolidine-1-carboxylate] | < 100 | 17.6 | 79.3 | – | – | – | –
Cc1nc2cc(F)ccc2n1C1CCN(C(=O)OC2C3CC4CC2CC(C(N)=O)(C4)C3)C1 (single isomer, unassigned; isomer 1) [EXAMPLE 74 Isomer 1] | – | – | – | – | 91.9 | 2.22 | < 100
Cc1csc(C2CCN(C(=O)OC3C4CC5CC3CC(C(N)=O)(C5)C4)C2)n1 (single isomer, unassigned) [EXAMPLE 42 Isomer 1, transl-carbamoyl-4-adamantyl 3-(4-methylthiazol-2-yl)pyrrolidine-1-carboxylate] | – | – | – | 91.8 | – | – | –
NC(=O)[C@]12CC3CC(C1)[C@@H](OC(=O)N1CC[C@@H](n4c(=O)[nH]c5cc(Cl)cnc54)C1)C(C3)C2 [EXAMPLE 69, (R)-trans-1-carbamoyl-4-adamantyl 3-(6-chloro-2-oxo-1H-imidazo[4,5-b]pyridin-3(2H)-yl)pyrrolidine-1-carboxylate] | < 100 | 1.04 | 97 | – | – | – | –
Cc1nc2cc(C#N)ccc2n1[C@H]1CCN(C(=O)OC2C3CC4CC2CC(C(N)=O)(C4)C3)C1 (stereo partly drawn) [EXAMPLE 75, (S)-1-carbamoyl-4-adamantyl 3-(5-cyano-2-methyl-1H-benzo[d]imidazol-1-yl)pyrrolidine-1-carboxylate] | < 100 | 5.03 | 39.1 | – | – | – | –
O=C(OC1C2CC3CC1CC(O)(C3)C2)N1CCC(c2ccncc2)C1 (centres unmarked) [EXAMPLE 21, 1-hydroxy-4-adamantyl 3-(pyridin-4-yl)pyrrolidine-1-carboxylate] | < 100 | 20.8 | 81.4 | – | – | – | –
Cn1ccc(-c2csc([C@H]3CCCN3C(=O)O[C@H]3C4CC5CC3C[C@](C(N)=O)(C5)C4)n2)cc1=O [EXAMPLE 55, (R)-trans-1-carbamoyl-4-adamantyl 2-(4-(1-methyl-2-oxo-1,2-dihydropyridin-4-yl)thiazol-2-yl)pyrrolidine-1-carboxylate] | < 100 | 2.07 | 93.1 | – | – | – | –
Cc1ncc(C2CCN(C(=O)OC3C4CC5CC3CC(C(N)=O)(C5)C4)C2)cn1 (single isomer, unassigned) [EXAMPLE 36 Isomer 2, 1-carbamoyl-4-adamantyl 3-(2-methylpyrimidin-5-yl)pyrrolidine-1-carboxylate] | > 100 | > 100 | – | 1.5 | – | – | –
